The text below walks through data of patent publication US20030109418A1, “Methods for identifying compounds for inhibition of neoplastic lesions, and pharmaceutical compositions containing such compounds” (priority 1999, published 2003).

For one data set, the system named is PANC-1. Description: Growth inhibition, neutral red assay, PANC-1. Format: cell-based. The note with it: Homo sapiens, HCl salt. On the procedure:
(§1) Compound I's activity is not confined to activity against colon cancer cell lines or animal models of colon cancer. It has a broad range of anti-neoplastic effects in various neoplastic cell lines. Various types of human cancer cell lines were propagated under sterile conditions in RPMI 1640 medium with 10% fetal bovine serum, 2 mM L-glutamine and sodium bicarbonate. To determine growth inhibitory effects of Compound I, cells were seeded in 96-well plates at a density of 1000 cells per well. Twenty-four hours after plating, the cells were dosed with various concentrations of the free base of Compound I solubilized in DMSO (final concentration 0.1%). The effect of the drug on tumor cell growth was determined using the neutral red cytotoxicity assay following five days of continuous treatment. Neutral red is a dye that is selectively taken up by viable cells by an ATP-dependent transport mechanism.

The subject of a further data set is DU145. The experiment in a line: Growth inhibition, neutral red assay, DU145. It counts as cell-based, human. To be noted: free base, five days. On the procedure: as §1
Another data set deals with HCT-15. The experiment in a line: Growth inhibition, neutral red assay, HCT-15. The note with it: free base, five days. Format: cell-based, human. The method, then: as §1
A further data set has as its system Colo 205. The experiment in a line: Growth inhibition, neutral red assay, Colo 205. It counts as cell-based, human. The note with it: free base, five days. On the procedure: as §1
The test system of data set [1] is PrEC primary prostate epithelial cell cultures. Description: Histone-associated DNA fragmentation in normal prostate epithelial cells. It counts as cell-based. To be noted: 50 μM, up to 4 days. On the procedure:
The androgen-sensitive prostate tumor cell line, LNCaP (from ATCC (Rockville, Md.)) was propogated under standard conditions using […] medium containing 5% fetal calve serum and 2 mM glutamine. Primary prostate epithelial cell cultures (PrEC) derived from normal prostate (from Clonetics Inc. (San Diego, Calif.)) were grown under the same conditions as the tumor cell line except a serum-free medium optimized for the growth of such cultures was used (Clonetics Inc). For the experiments, LNCaP or PrEC cells were seeded in 96 well plates at a density of 10,000 cells per well. After 24 hours, the cells were treated with either vehicle (0.1% DMSO) or 50 μM Compound I (free base) solubilized in DMSO. After various drug treatment times (4, 24, 48, 72, or 99 hours) the cells were lysed and processed for measurement of histone-associated DNA as an indicator of apoptotic cell death (see, Piazza et al., Cancer Research 57: 2452-2459, 1997).
This is in marked contrast to conventional chemotherapeutics that induce apoptosis or necrosis in rapidly growing normal and neoplastic cells alike.

The subject of data set [2] is PDE4 purified from human colon HT-29 cultured tumor cells. Description: PDE4 inhibition assay. Format: biochemical. The note with it: HT-29 cell enzyme.
A further data set concerns HT-29 cells. Description: Apoptosis and necrosis by morphology (acridine orange and ethidium bromide). Format: cell-based, human. To be noted: HT-29 treated for six days. The text has this:
Apoptosis occurs naturally during normal tissue turnover and during embryonic development of organs and limbs. Apoptosis also is induced by cytotoxic T-lymphocytes and natural killer cells, by ionizing radiation and by certain chemotherapeutic drugs. Inappropriate regulation of apoptosis is thought to play an important role in many pathological conditions including cancer, AIDS, or Alzheimer's disease, etc. Compounds can be screened for induction of apoptosis using cultures of tumor cells maintained under conditions as described above. Treatment of cells with test compounds involves either pre- or post-confluent cultures and treatment for two to seven days at various concentrations. Apoptotic cells are measured in both the attached and “floating” compartments of the cultures. Both compartments are collected by removing the supernatant, trypsinizing the attached cells, and combining both preparations following a centrifugation wash step (10 minutes, 2000 rpm). The protocol for treating tumor cell cultures with sulindac and related compounds to obtain a significant amount of apoptosis has been described in the literature. (See, Piazza, G. A., et al., Cancer Research, 55:3110-16, 1995, which is incorporated herein by reference). The novel features include collecting both floating and attached cells, identification of the optimal treatment times and dose range for observing apoptosis, and identification of optimal cell culture conditions.
Following treatment with a compound, cultures can be assayed for apoptosis and necrosis by florescent microscopy following labeling with acridine orange and ethidium bromide. The method for measuring apoptotic cell number has previously been described by Duke & Cohen, “Morphological And Biochemical Assays Of Apoptosis,” Current Protocols In Immunology, Coligan et al., eds., 3.17.1-3.17.16 (1992, which is incorporated herein by reference).
For example, floating and attached cells can be collected by trypsinization and washed three times in PBS. Aliquots of cells can be centrifuged. The pellet can then be re-suspended in media and a dye mixture containing acridine orange and ethidium bromide prepared in PBS and mixed gently. The mixture can then be placed on a microscope slide and examined for morphological features of apoptosis.
Reference compounds and test compounds were analyzed for their novel PDE inhibitory activity in accordance with the protocols for the assay, supra. […] Apoptotic and necrotic cell death was determined previously (Duke and Cohen, In: Current Protocols in Immunology, 3.17.1-3.17.16, New York, John Wiley and Sons, 1992). […] All data were collected from the same experiment.
The apoptosis inducing activity for a series of phosphodiesterase inhibitors was determined. HT-29 cell were treated for 6 days with various inhibitors of phosphodiesterase. Apoptosis and necrosis were determined morphologically after acridine orange and ethidium bromide labeling in accordance with the assay described, supra.

Data set [3] addresses T1, cGMP binding sites of the GST-cGB-PDE5 protein (Homo sapiens, UniProt O76074).
T1 construct: made in house; host or cells: E. coli BL21 (DE3)
The experiment in a line: cGMP binding assay with GST-cGB-PDE5 fusion protein. To be noted: 3H-cGMP 2 μM.

Data set [4] concerns new polyps in patients with adenomatous polyposis coli. The experiment in a line: Clinical prevention trial in APC patients. It counts as in vivo, human. The text has this: The first clinical trial involved patients with APC.
using exisulind. In that study, each patient had already had his/her colon removed, except for a small section of colon adjacent the rectum (where the small intestine was attached) to preserve rectal function. However, such a patient commonly forms polyps in the small remaining colonic section, which polyps require periodic removal (e.g., by electrocautery).
That trial where exisulind was selected was a prevention trial designed to evaluate the anti-neoplastic characteristics of the drug by comparing the cumulative number of new polyps formed over twelve months by the drug and placebo groups. Eligible patients were those who form between 9 and 44 polyps per year. Patients were fully ablated (had all polyps removed) at the start of the study, at the end of 6 months and at the end of 12 months. The study enrolled thirty-four eligible patients. […] Based on the median number of polyps produced in the first six months of the study, patients treated with exisulind developed approximately one-third the number of polyps as patients treated with placebo (median values 9 polyps/year and 26 polyps/year, respectively; p=0.013). […]

The test system of data set [5] is NRK, Kidney (non ras-transformed). Description: Growth inhibition, SRB assay, NRK. Format: cell-based. In general terms: In SRB staining, fixed cells bind dye roughly in proportion to their protein.

Counter-ions that a name gives are not always drawn.

T1 sequence (O76074 46-539 limits assumed): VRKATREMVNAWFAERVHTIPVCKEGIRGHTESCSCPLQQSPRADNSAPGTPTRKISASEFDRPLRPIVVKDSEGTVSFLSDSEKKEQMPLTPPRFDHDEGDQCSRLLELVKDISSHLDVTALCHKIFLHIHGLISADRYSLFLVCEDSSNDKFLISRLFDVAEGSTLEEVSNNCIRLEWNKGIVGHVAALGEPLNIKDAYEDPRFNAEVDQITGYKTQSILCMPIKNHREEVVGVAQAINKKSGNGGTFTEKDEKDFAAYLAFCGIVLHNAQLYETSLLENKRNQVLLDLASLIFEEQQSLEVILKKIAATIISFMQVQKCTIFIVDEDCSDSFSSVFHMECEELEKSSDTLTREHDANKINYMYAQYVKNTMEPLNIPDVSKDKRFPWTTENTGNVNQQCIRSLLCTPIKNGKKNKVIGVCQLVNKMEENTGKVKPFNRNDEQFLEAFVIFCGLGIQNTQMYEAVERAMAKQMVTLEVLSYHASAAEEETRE

For the molecule `CC1=C(CC(=O)NCc2ccccc2)c2cc(F)ccc2/C1=C\c1ccncc1` [Compound I, (Z)-5-fluoro-2-methyl-(4-pyridylidene)-3-(N-benzyl)indenylacetamide hydrochloride], the GI50 with PANC-1 worked out at 2.2 µM; in the data set on DU145 (Homo sapiens, DU-145, 120 h) it was 1.6 µM; with HCT-15 (Homo sapiens, HCT-15, 120 h), 1.7 µM; with Colo 205 (Homo sapiens, COLO 205, 120 h), 1.6 µM. Further, the “GI90 μM, DU145” value in the data set on DU145 is 2.8 µM. Further, the “GI90 μM, HCT-15” value in the data set on HCT-15 is 3.0 µM. Moreover, in the data set with Colo 205, the “GI90 μM, Colo 205” value worked out at 2.4 µM. Also, in [1], the “DNA fragmentation in PrEC (normal prostate) cells” value is “did not affect DNA fragmentation”.

Turning to `CC1=C(CC(=O)O)c2cc(F)ccc2/C1=C\c1ccc(S(C)(=O)=O)cc1` [Exisulind, 5-fluoro-2-methyl-1-(p-methylsulfonylbenzylidene)-3-indenylacetic acid], the IC50 worked out at 181000 nM in [2] and 180 µM in [5]. Besides, in the data set on HT-29 cells, the “apoptotic and necrotic cell death” value is “capable of causing apoptotic cell death without inducing necrosis”. Moreover, in data set [3], the “competition with cGMP in binding of GST-cGB-PDE5” value is “do not bind to the cGMP binding sites of PDE5”. In addition, the “median number of polyps produced, entire 12 months” value in data set [4] (entire 12 months of the study) turned out to be 18 polyps/year. Also, the “median number of polyps produced, first six months” value in data set [4] (first six months of the study) was 9 polyps/year.

One may read the GI50 as the concentration giving 50% growth inhibition. In general, IC50 refers to the point on the concentration scale where inhibition reaches its midpoint. A higher IC50 goes with lower potency.
